Test results published in US20050192243A1, “Neuromuscular blocking agents and antagonists thereof” (priority 2003, published 2005).

Assays:
Rhesus monkeys [1] = tested on: Rhesus monkeys
Description: Rhesus monkeys were anesthetized with ketainine (5 mg/Kg) and thiopental (5 mg/Kg) given intramuscularly or intravenously. Anesthesia was maintained with a mixture of halothane (1.5%), nitrous oxide (60%) and oxygen (40%). The common peroneal nerve was stimulated supramaximally with square wave pulses of 0.2 m sec duration at a rate of 0.15 Hz. Twitch contractions were recorded via the tendon of the extensor digitorum muscle.
In all animals, the trachea was intubated and ventilation was controlled at 12-15 ml/kg, 18-24 breaths per minute. A peripheral vein and artery were cannulated for drug administration and for recording of arterial pressure, respectively. A dosage of 0.1 mg/kg of the 353044 intermediate duration halofumarate neuromuscular blocking agent was administered intravenously. The 353044 intermediate duration halofumarate neuromuscular blocking agent has the following structure, wherein X is Cl. [drawing 11]
For comparison, 0.5 mg/kg of the ultra-short 280430A halofumarate neuromuscular blocking agent was administered to a separate set of animals. […] Animals that had received the 353044 intermediate duration halofumarate neuromuscular blocking agent, then received a combination of […] 10 mg/kg glutathione.

Rhesus monkeys [2] = experiment: Recovery of twitch response from GW 280430A neuromuscular block with or without cysteine-like antagonist; assay type: in vivo
Description: Rhesus monkeys were anesthetized with ketamine (5 mg/Kg) and thiopental (5 mg/Kg) given intramuscularly or intravenously. Anesthesia was maintained with a mixture of halothane (1.5%), nitrous oxide (60%) and oxygen (40%). The common peroneal nerve was stimulated supramaximally with square wave pulses of 0.2 m sec duration at a rate of 0.15 Hz. Twitch contractions were recorded via the tendon of the extensor digitorum muscle.
In all animals, the trachea was intubated and ventilation was controlled at 12-15 ml/kg, 18-24 breaths per minute. A peripheral vein and artery were cannulated for drug administration and for recording or arterial pressure, respectively.
Rhesus monkeys were anesthetized and treated with a halofumarate neuromuscular blocking agent as described in Example 1.
Several tests were generally run (#1, #2, #3, etc.) with time in between each test so that the animal could recover.

[3] = Buck 13.2, Baseline (430A, no cysteine)
[4] = Count 13.1 kg, #3, 0.2 mg/kg 430A alone
[5] = Impy 12.5 kg, #1, 0.05 mg/kg 430A alone
[6] = Impy 12.5 kg, #3, 0.05 mg/kg 430A alone
[7] = Means of Skye, Impy & Count, Baseline (430A, no cysteine)
[8] = Means of Skye, Impy and Buck, Baseline (430A, no cysteine)
[9] = Morgan 12.4 kg, #1, 0.05 mg/kg 430A alone
[10] = Morgan 12.4 kg, #2, 0.01 mg/kg 430A alone
[11] = Skye 11.6 kg, Baseline (430A, no cysteine)
[12] = Skye 12.1 kg, #1, 0.05 mg/kg 430A alone
[13] = Skye 12.1 kg, #3, 0.05 mg/kg 430A alone

`COc1cc2c(cc1OC)[C@H](c1cc(OC)c(OC)c(OC)c1)[N@@+](C)(CCCOC(=O)/C=C(\Cl)C(=O)OCCC[N@+]1(C)CCc3cc(OC)c(OC)cc3[C@H]1Cc1cc(OC)c(OC)c(OC)c1)CC2.[Cl-].[Cl-]` [GW 280430A, (Z)-2-Chloro-4-{3-[(1S,2R)-6,7-dimethoxy-2-methyl-1-(3,4,5-trimethoxyphenyl)-1,2,3,4-tetrahydro-2-isoquinolinio]propyl}-1-{3{(1R,2S)-6,7-dimethoxy-2-methyl-1-[(3,4,5-trimethoxyphenyl)methyl]-1,2,3,4-tetrahydro-2-isoquinolinio}propyl}-2-butenedioate dichloride] was tested, and the “speed of recovery compared with 353044, with antagonist” value (Rhesus monkeys [1]; 0.50 mg/kg GW 280430A + 5 mg/kg cysteine vs 0.10 mg/kg 353044 + cysteine and glutathione, FIG. 9) was “again faster”, the “speed of recovery compared with 353044, no antagonist” value (Rhesus monkeys [1]; 0.50 mg/kg GW 280430A vs 0.10 mg/kg 353044, FIG. 9 solid lines) was “recovered faster” and the 25-75% recovery interval (Rhesus monkeys [2]; [3]) was 54 s. The Recovery 5-95% (Rhesus monkeys [2]; [3]) was 114 s, the time to 5% twitch recovery (Rhesus monkeys [2]; [3]) was 12 s and the time to 25% twitch recovery (Rhesus monkeys [2]; [3]) was 48 s. The time to 75% twitch recovery (Rhesus monkeys [2]; [3]) was 102 s, the time to 95% twitch recovery (Rhesus monkeys [2]; [3]) was 126 s and the “Recovery 5%” value (Rhesus monkeys [2]; [4]) was 9 s. The “Recovery 5-95%” value (Rhesus monkeys [2]; [4]) was 75 s, the “Recovery 25%” value (Rhesus monkeys [2]; [4]) was 24 s and the “Recovery 25-75%” value (Rhesus monkeys [2]; [4]) was 33 s. The “Recovery 75%” value (Rhesus monkeys [2]; [4]) was 57 s, the “Recovery 95%” value (Rhesus monkeys [2]; [4]) was 84 s and the “Recovery 5%” value (Rhesus monkeys [2]; [5]) was 30 s. For the same compound, the “Recovery 5-95%” value (Rhesus monkeys [2]; [5]) was 141 s, the “Recovery 25%” value (Rhesus monkeys [2]; [5]) was 63 s and the “Recovery 25-75%” value (Rhesus monkeys [2]; [5]) was 57 s. For the same compound, the “Recovery 75%” value (Rhesus monkeys [2]; [5]) was 120 s, the “Recovery 95%” value (Rhesus monkeys [2]; [5]) was 171 s and the “Recovery 75%” value (Rhesus monkeys [2]; [6]) was 45 s. For the same compound, the “Recovery 95%” value (Rhesus monkeys [2]; [6]) was 78 s, the 25-75% recovery interval (Rhesus monkeys [2]; [7]) was 75 s and the Recovery 5-95% (Rhesus monkeys [2]; [7]) was 193 s. The time to 5% twitch recovery (Rhesus monkeys [2]; [7]) was 16 s, the time to 25% twitch recovery (Rhesus monkeys [2]; [7]) was 46 s and the time to 75% twitch recovery (Rhesus monkeys [2]; [7]) was 121 s. The time to 95% twitch recovery (Rhesus monkeys [2]; [7]) was 209 s, the 25-75% recovery interval (Rhesus monkeys [2]; [8]) was 77 s and the Recovery 5-95% (Rhesus monkeys [2]; [8]) was 193 s. For the same compound, the time to 5% twitch recovery (Rhesus monkeys [2]; [8]) was 22 s, the time to 25% twitch recovery (Rhesus monkeys [2]; [8]) was 61 s and the time to 75% twitch recovery (Rhesus monkeys [2]; [8]) was 138 s. The time to 95% twitch recovery (Rhesus monkeys [2]; [8]) was 215 s, the “Recovery 25%” value (Rhesus monkeys [2]; [9]) was 40 s and the “Recovery 25-75%” value (Rhesus monkeys [2]; [9]) was 103 s. For the same compound, the “Recovery 75%” value (Rhesus monkeys [2]; [9]) was 143 s, the “Recovery 95%” value (Rhesus monkeys [2]; [9]) was 233 s and the “Recovery 5%” value (Rhesus monkeys [2]; [10]) was 30 s. For the same compound, the “Recovery 5-95%” value (Rhesus monkeys [2]; [10]) was 282 s, the “Recovery 25%” value (Rhesus monkeys [2]; [10]) was 42 s and the “Recovery 25-75%” value (Rhesus monkeys [2]; [10]) was 144 s. For the same compound, the “Recovery 75%” value (Rhesus monkeys [2]; [10]) was 186 s, the “Recovery 95%” value (Rhesus monkeys [2]; [10]) was 312 s and the 25-75% recovery interval (Rhesus monkeys [2]; [11]) was 120 s. For the same compound, the Recovery 5-95% (Rhesus monkeys [2]; [11]) was 324 s, the time to 5% twitch recovery (Rhesus monkeys [2]; [11]) was 24 s and the time to 25% twitch recovery (Rhesus monkeys [2]; [11]) was 72 s. The time to 75% twitch recovery (Rhesus monkeys [2]; [11]) was 192 s, the time to 95% twitch recovery (Rhesus monkeys [2]; [11]) was 348 s and the “Recovery 5%” value (Rhesus monkeys [2]; [12]) was 9 s. The “Recovery 5-95%” value (Rhesus monkeys [2]; [12]) was 363 s, the “Recovery 25%” value (Rhesus monkeys [2]; [12]) was 51 s and the “Recovery 25-75%” value (Rhesus monkeys [2]; [12]) was 135 s. For the same compound, the “Recovery 75%” value (Rhesus monkeys [2]; [12]) was 186 s, the “Recovery 95%” value (Rhesus monkeys [2]; [12]) was 372 s and the “Recovery 25%” value (Rhesus monkeys [2]; [13]) was 143 s. For the same compound, the “Recovery 25-75%” value (Rhesus monkeys [2]; [13]) was 122 s, the “Recovery 75%” value (Rhesus monkeys [2]; [13]) was 265 s and the “Recovery 95%” value (Rhesus monkeys [2]; [13]) was 368 s.

`CC(=O)N[C@@H](CS)C(=O)O` [N-acetylcysteine, reference compound] was tested, and the “time to complete reversal of the block in neuromuscular activity after administration” value (Rhesus monkeys [2]; 5 mg/kg antagonist after GW 280430A, FIG. 4, FIG. 5) was at most 165 s.
